Measurements reported in patent publication US11926645B2, “Compounds and methods for treatment of viral infections” (priority 2020, dated 2024).
Like-named read-outs stand apart in the source and are kept apart here.

How the values were obtained:
in vitro [1] = conditions: African green monkey
SARS-CoV-2-Nluc viruses = assay: microbe, parasite or virus in culture; format: cell-based
RSV strain A2 = assay: RSV antiviral assay (Hep2), EC50-Hep2/B1-384; format: cell-based; conditions: human respiratory syncytial virus, HEp-2, 96 h; Hep2 cells, 4 days, Cell-Titer Glo
SARS-CoV-2 BZ/2021 P.1 = assay: microbe, parasite or virus in culture; format: cell-based; conditions: Severe acute respiratory syndrome coronavirus 2, Vero C1008
in vitro [2] = conditions: human, PrestoBlue
[3] = test system: SARS-CoV-2 2019-nCoV/USA-WA1/2020; format: in vivo
in vitro [4] = format: cell-based; conditions: human
Procedure: The cytotoxicity of compounds was determined in A549-hACE2 cells in the following manner. Compounds (200 nL) were spotted onto 384-well Grenier plates prior to seeding 5000 A549-hACE2 cells/well in a volume of 40 μL culture medium. The plates were incubated at 37° C. for 48 hours with 5% CO2. On day 2, 40 μL of CellTiter-Glo (Promega) was added and mixed 5 times.

[5] = test system: RSV-Fluc (Respiratory Syncytial virus strain A2 containing the firefly luciferase reporter); assay: microbe, parasite or virus in culture; format: cell-based; conditions: human respiratory syncytial virus, 72 h, NHBE cells, three days
Plasma stability = conditions: human
[6] = in vivo, po
in vitro [7] = conditions: hamster
CES2 = molecular target: T1, CES2 (Homo sapiens, UniProt O00748); assay: CES1/2 stability, CES2; format: in vitro ADME; conditions: CES2 Supersome preparation; Supersome preparations, CES 1.5 mg/ml, 2 μM substrate, pH 7.4, 37° C.; read-out: CES2 T1/2
T1 construct: purchased
T1 sequence (O00748 27-559): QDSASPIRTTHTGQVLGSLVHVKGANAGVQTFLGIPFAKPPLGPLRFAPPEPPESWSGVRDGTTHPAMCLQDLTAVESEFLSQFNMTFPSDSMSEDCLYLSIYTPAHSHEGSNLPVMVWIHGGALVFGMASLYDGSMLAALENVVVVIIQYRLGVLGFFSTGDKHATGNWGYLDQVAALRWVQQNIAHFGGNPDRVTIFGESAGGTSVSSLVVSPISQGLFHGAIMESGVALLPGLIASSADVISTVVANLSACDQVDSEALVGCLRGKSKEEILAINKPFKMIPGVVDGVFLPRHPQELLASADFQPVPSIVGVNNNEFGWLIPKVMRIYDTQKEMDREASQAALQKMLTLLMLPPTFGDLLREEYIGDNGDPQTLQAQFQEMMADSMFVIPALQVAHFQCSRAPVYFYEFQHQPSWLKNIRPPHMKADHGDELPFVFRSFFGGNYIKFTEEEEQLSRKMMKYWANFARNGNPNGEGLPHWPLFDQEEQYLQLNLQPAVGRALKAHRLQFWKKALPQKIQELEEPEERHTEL
Procedure: Test compounds or positive control substrates (oseltamivir for CES1 enzymes or procaine for CES2) were incubated with individual Supersome preparations (final CES concentration 1.5 mg/ml) in 0.1 M potassium phosphate buffer (pH 7.4) at 37° C. Substrates were added to a final concentration of 2 μM to initiate the reaction. The final incubation volume was 250 μL. Aliquots were removed after incubation for 0, 10, 30, 60 and 120 min. The reactions were stopped by the addition of IS/Q. Following protein precipitation and centrifugation, 150 μL of supernatant was diluted with an equal volume of water prior to LC-MS analysis. For procaine 150 μL of supernatant was dried down and reconstituted with 250 μL water. All samples were analyzed by LC-MS and the PAR values were used for quantification.

in vitro [8] = format: in vitro ADME; conditions: s9, pH 7.4
Procedure: Duplicate aliquots of test compound or positive control substrate (GS-7340) were added to S9 stock diluted with 100 mM potassium phosphate buffer, pH 7.4, to obtain a protein concentration of 2.4 mg/mL. The S9 metabolic reactions were initiated by the addition of the substrates to the S9 reaction mixture to a final concentration of 2 μM. At 2, 12, 25, 45, 65 and 90 min, 25 μL aliquots of the reaction mixture were transferred to plates containing 225 μl of IS/Q solution. After quenching, the plates were centrifuged at 3000×g for 30 minutes, and 150 μl, aliquots of each supernatant were diluted with 150 μl, water. Aliquots (10 μL) of the diluted supernatant were analyzed on a Thermo Q-Exactive mass spectrometer as described below.
Quantification of test compounds and controls was performed by analyte/internal standard peak area ratio (PAR) values measured on a Thermo Q-Exactive mass spectrometer coupled to a Dionex UltiMate 3000 HPLC with a Leap Technologies HTC PAL autosampler. The column used was a Thermo Hypersil GOLD (1.9 μm particle size, 2.1×50 mm). Mobile phase A consisted of 0.1% (v/v) formic acid in water. Mobile phase B consisted of 0.1% (v/v) formic acid in acetonitrile. Elution of analytes was achieved by a series of linear gradients of acetonitrile in water containing 0.1% (v/v) formic acid. The mass spectrometer was calibrated on a weekly basis and mass tolerance of 5 ppm was used.

[9] = male, Sprague-Dawley, rat, in vivo, po, 8 mg/kg
[10] = […], Compound 1 10 mg/kg and 3 mg/kg, EIDD-2801/molnupiravir 5 mg/kg

CC(C)C(=O)OC[C@H]1O[C@@](C#N)(c2ccc3c(N)ncnn23)[C@H](OC(=O)C(C)C)[C@@H]1OC(=O)C(C)C [Compound 1, (2R,3R,4R,5R)-2-(4-aminopyrrolo[2,1-f][1,2,4]triazin-7-yl)-2-cyano-5-((isobutyryloxy)methyl)tetrahydrofuran-3,4-diyl bis(2-methylpropanoate)]
CC50 (in vitro [1]): > 100 µM | EC50 (SARS-CoV-2-Nluc viruses; Severe acute respiratory syndrome coronavirus 2, 48 h, read-out: SARS-CoV2 EC50): 2.7 µM | EC50 (SARS-CoV-2-Nluc viruses; Severe acute respiratory syndrome coronavirus 2, host cells A549-ACE2, read-out: EC50, WA1/2020-nano luciferase): 0.98 µM | EC50 (RSV strain A2): 0.261 µM | EC50 (SARS-CoV-2 BZ/2021 P.1): 0.22 µM | CC50 (in vitro [2]; CC50, DF2 HAE, primary diseased (asthma) HAE donor DF2, 72 hours): 86 µM | CC50 (in vitro [2]; CC50, F2 HAE, primary HAE donor F2, 72 hours): 43.8 µM | CC50 (in vitro [2]; CC50, F3 HAE, primary HAE donor F3, 72 hours): 43.8 µM | CC50 (in vitro [2]; CC50, M2 HAE, primary HAE donor M2, 72 hours): 39.7 µM | CC50 (in vitro [2]; CC50, M6 HAE, primary HAE donor M6, 72 hours): 92.3 µM | Clinical signs versus vehicle animals [3, 10]: No significant differences in clinical signs | Virus burden in the turbinates [3, 10]: reduced burden in the turbinates | Shed virus load (nasal lavages) versus vehicle ([3]; […], Compound 1 10 mg/kg and 3 mg/kg, EIDD-2801/molnupiravir 5 mg/kg, within 12 hours of treatment onset): lower in all treated animals than in the vehicle group | Viral RNA copies in nasal lavages and turbinates versus vehicle ([3]; […], Compound 1 10 mg/kg, EIDD-2801/molnupiravir 5 mg/kg): statistically significant mean reduction | Clinical signs (body temperature, weight gain) ([3]; in vivo, po, 20 mg/kg): only animals of the vehicle group showed elevated body temperature | Shed SARS-CoV-2 load in nasal lavages ([3]; in vivo, po, 20 mg/kg): transiently detectable in lavages of only one ferret | Viral RNA copy numbers in turbinates, difference between vehicle and treatment groups ([3]; in vivo, po, 20 mg/kg): three | Virus in nasal turbinates 4 days after infection ([3]; in vivo, po, 20 mg/kg): undetectable | CC50 at 48 h (in vitro [4]): > 50 µM | CC50 (in vitro [4]; host cells A549-ACE2, read-out: CC50, A549-ACE2): > 50 µM | EC50 [5]: 0.389 µM | half-life at 2 μM (Plasma stability): 5.5 min | Compound 1 concentration transiently observed ([6]; ferret, 30 mg/kg): ^aapproximately 10 nM Compound 1 transiently observed in first two hours. | oral bioavailability (in words) [6]: excellent oral bioavailability | Cmax ([6]; 30 mg/kg): 15.8 ± 4.7 µM | CC50 (in vitro [7]): > 100 µM | half-life at 2 μM (CES2): < 1 min | half-life at 2 μM (in vitro [8]): 2 min | Cmax [9]: 5.83 µM
